According to US20060025478A1, “Medicine for prevention or treatment of diabetes” (priority 2004, published 2006):

Tested on: C57BL/KsJ db/db mice
Assay: Hypoglycemic effect of single or combined administration in db/db mice (plasma glucose concentration)
Assay type: in vivo, mouse
Conditions: for Decreasing effect for the plasma glucose concentration (in words) / Relative index (mean plasma glucose of group / mean of control group) / Decreasing rate (of plasma glucose concentration vs control group): 14th day; for Decreasing effect for the plasma glucose concentration (in words): compared with db/+m normal mouse (187±16); for Relative index (mean plasma glucose of group / mean of control group) / Decreasing rate (of plasma glucose concentration vs control group) / Plasma glucose concentration: oral once a day for 14 days; for Decreasing rate (of plasma glucose concentration vs control group): (control mean − group mean)/control mean ×100; for Plasma glucose concentration: plasma 2 hours after administration on the 14th day, mean±standard deviation for 6 mice, control group 499 ± 81
Experimental: As test animals, C57BL/KsJ db/db mice were used, which were created in Jackson Laboratory (USA) and known as an obesity, hyperlipemia, hyperinsulinemia, and insulin-resistant model (Journal of Clinical Investigation, 85, pp 962-967, 1990). Blood was collected from the orbital venous plexus of each 7-week-old db/db mouse using a heparin-treated capillary tube, and centrifugation was performed to collect plasma. Thereafter, the plasma glucose concentration (Glucose CII-Test Wako (Wako Pure Chemical Industries, Ltd.)), the insulin concentration (Lebis Insulin Kit: for mouse-T (SHIBAYAGI)), and the triglyceride concentration (Triglyceride E-Test Wako (Wako Pure Chemical Industries, Ltd.)) were measured for classification. The classification was performed so that distribution of each measurement item is uniform for each group by block allocation based on many variables in which the plasma glucose concentration is most emphasized using the measured values of the plasma glucose concentration, the body weight, the insulin concentration, and the triglyceride concentration. […] Two hours after the administration of the medicines on the 14th day from the beginning day of the administration, blood was collected from the orbital venous plexus, and the plasma thereof was collected to measure the plasma glucose concentration. […] Each plasma glucose concentration is expressed as mean±standard deviation for 6 mice of each group. Each decreasing rate is calculated from ((mean of plasma glucose concentration of control group)−(mean of plasma glucose concentration of each group))/(mean of plasma glucose concentration of control group)×100, while each relative index is calculated from (mean of plasma glucose concentration of each group)/(mean of plasma glucose concentration of control group)

Compound | Decreasing effect for the plasma glucose concentration (in words) | Relative index (mean plasma glucose of group / mean of control group) | Decreasing rate (of plasma glucose concentration vs control group) | Plasma glucose concentration
CCc1ccc(CCOc2ccc(CC3SC(=O)NC3=O)cc2)nc1.Cl (centres unmarked) [Pioglitazone hydrochloride, 5-[4-[2-(5-Ethyl-2-pyridyl)ethoxy]benzyl]thiazolidine-2,4-dione hydrochloride] | insufficient | 0.80 | 20% | 401 ± 173 mg/dL
O=C([O-])C(Cl)(Cl)CCCCCCCCCCc1ccc(Cl)cc1.[Na+] [sodium 2,2-dichloro-12-(4-chlorophenyl)-dodecanoate] | insufficient | 0.92 | 8% | 459 ± 77 mg/dL
